Laboratory results published in ChEMBL document CHEMBL1139938, “Syntheses and antibacterial activity of phendioxy substituted cyclic enediynes” (2007).
Values after ≈ are worked out from the molar mass of the structure shown. Active and inactive are the calls of the source. The rule behind the calls is not given here.

Experiments:
[1] = test system: Staphylococcus aureus; assay: Antibacterial activity against Staphylococcus aureus isolate upto 512 ug/mL; assay type: functional, organism-based
[2] = test system: Salmonella typhimurium; assay: Antibacterial activity against Salmonella Typhimurium isolate; assay type: functional, Salmonella enterica subsp. enterica serovar Typhimurium; conditions: Salmonella enterica
[3] = test system: Pseudomonas aeruginosa; assay: Antibacterial activity against Pseudomonas aeruginosa ATCC 11775 upto 512 ug/mL; assay type: functional, organism-based
[4] = test system: Escherichia coli; assay: Antibacterial activity against Escherichia coli ATCC 25668; assay type: functional
[5] = test system: Pseudomonas aeruginosa; assay: Antibacterial activity against Pseudomonas aeruginosa ATCC 11775; assay type: functional
[6] = test system: Staphylococcus aureus; assay: Antibacterial activity against Staphylococcus aureus isolate; assay type: functional
[7] = test system: Escherichia coli; assay: Antibacterial activity against Escherichia coli ATCC 25668 upto 512 ug/mL; assay type: functional, organism-based
[8] = test system: Salmonella typhimurium; assay: Antibacterial activity against Salmonella Typhimurium isolate upto 512 ug/mL; assay type: functional, organism-based; conditions: Salmonella enterica subsp. enterica serovar Typhimurium

SMILES | MIC [2] [µg/mL] | MIC [4] [µg/mL] | MIC [5] [µg/mL] | MIC [6] [µg/mL] | Activity [1] | Activity [3] | Activity [7] | Activity [8]
C#CCOc1ccc(C=O)c(OCC#C)c1 | > 1000 | > 1000 | > 1000 | > 1000 | – | – | – | –
C#CCOc1cccc(OCC#C)c1 | > 1000 | > 1000 | > 1000 | > 1000 | – | – | – | –
OCc1ccc2cc1OCC#C/C=C\C#CCO2 | 128 (≈ 533 µM) | 8 (≈ 33.3 µM) | – | 4 (≈ 16.6 µM) | – | inactive | – | –
Cc1ccc(NCc2ccc3cc2OCC#C/C=C\C#CCO3)cc1 | 128 (≈ 389 µM) | 4 (≈ 12.1 µM) | 32 (≈ 97.1 µM) | 16 (≈ 48.6 µM) | – | – | – | –
Clc1ccc(NCc2ccc3cc2OCC#C/C=C\C#CCO3)cc1 | 512 (≈ 1460 µM) | 64 (≈ 183 µM) | – | – | inactive | inactive | – | –
Brc1ccc(NCc2ccc3cc2OCC#C/C=C\C#CCO3)cc1 | – | 128 (≈ 325 µM) | – | – | inactive | inactive | – | inactive
CN(C)[C@@H]1C(O)=C(C(N)=O)C(=O)[C@@]2(O)C(O)=C3C(=O)c4c(O)cccc4[C@@](C)(O)[C@H]3C[C@@H]12 [TETRACYCLINE] | 0.5 (≈ 1.13 µM) | 2 (≈ 4.5 µM) | 1 (≈ 2.25 µM) | 2 (≈ 4.5 µM) | – | – | – | –
O=Cc1ccc2cc1OCC#C/C=C\C#CCO2 | 128 (≈ 537 µM) | 256 (≈ 1070 µM) | – | 8 (≈ 33.6 µM) | – | inactive | – | –

The remaining compounds from weak to strong by MIC [2], led by results:

MIC [2] [µg/mL] | MIC [4] [µg/mL] | MIC [5] [µg/mL] | MIC [6] [µg/mL] | SMILES | Activity [1] | Activity [3] | Activity [7] | Activity [8]
128 (≈ 391 µM) | 256 (≈ 782 µM) | – | – | Cc1ccc(/N=C/c2ccc3cc2OCC#C/C=C\C#CCO3)cc1 | inactive | inactive | – | –
128 (≈ 326 µM) | – | – | – | Brc1ccc(/N=C/c2ccc3cc2OCC#C/C=C\C#CCO3)cc1 | inactive | inactive | inactive | –
64 (≈ 204 µM) | 128 (≈ 408 µM) | 128 (≈ 408 µM) | 128 (≈ 408 µM) | C1#CCOc2ccc(/C=N/c3ccccc3)c(c2)OCC#C/C=C\1 | – | – | – | –
16 (≈ 50.7 µM) | 4 (≈ 12.7 µM) | 16 (≈ 50.7 µM) | 8 (≈ 25.4 µM) | C1#CCOc2ccc(CNc3ccccc3)c(c2)OCC#C/C=C\1 | – | – | – | –
8 (≈ 38.1 µM) | 4 (≈ 19 µM) | – | – | C1#CCOc2cccc(c2)OCC#C/C=C\1 | inactive | inactive | – | –
